In patent EP0774116B1, “METHOD FOR SCREENING COMPOUND LIBRARIES” (ZENECA LIMITED, priority 1994, dated 1996):

Assays:
[1] = target: T1, endothelin converting enzyme (Bos taurus, UniProt P42891); assay: Zones of enzyme inhibition in Sephacryl gel with fluorogenic FRET substrate, fluorescence imaging; type: biochemical; details: beads impregnated with 10mM solution in DMSO; gel left at ambient temperature overnight; FRET substrate 4micromolar
T1 construct: Samples of endothelin converting enzyme (ECE) were obtained essentially according to the method of Okada et al; endogenous in cells; By own knowledge of Okada et al. 1990: membrane fraction of cultured bovine endothelial cells
T1 sequence (P42891 1-754): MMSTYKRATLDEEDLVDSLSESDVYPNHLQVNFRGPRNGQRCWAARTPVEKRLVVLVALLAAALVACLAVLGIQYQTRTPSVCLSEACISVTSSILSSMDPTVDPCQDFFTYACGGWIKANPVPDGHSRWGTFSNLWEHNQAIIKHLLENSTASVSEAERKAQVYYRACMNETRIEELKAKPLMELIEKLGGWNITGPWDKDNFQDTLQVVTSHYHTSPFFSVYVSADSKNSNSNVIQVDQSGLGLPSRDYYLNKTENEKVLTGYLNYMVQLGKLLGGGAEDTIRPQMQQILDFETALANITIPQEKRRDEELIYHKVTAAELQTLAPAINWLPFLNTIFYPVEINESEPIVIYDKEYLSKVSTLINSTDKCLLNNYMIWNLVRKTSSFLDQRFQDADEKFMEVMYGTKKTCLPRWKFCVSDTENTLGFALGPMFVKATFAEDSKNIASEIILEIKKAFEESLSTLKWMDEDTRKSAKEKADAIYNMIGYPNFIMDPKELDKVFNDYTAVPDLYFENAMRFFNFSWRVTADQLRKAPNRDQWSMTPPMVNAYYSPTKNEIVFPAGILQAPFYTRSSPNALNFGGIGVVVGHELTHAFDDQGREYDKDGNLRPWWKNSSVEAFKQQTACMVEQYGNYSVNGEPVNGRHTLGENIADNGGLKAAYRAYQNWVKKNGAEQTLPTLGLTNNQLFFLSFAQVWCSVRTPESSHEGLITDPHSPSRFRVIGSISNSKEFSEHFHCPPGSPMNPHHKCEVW
Protocol: In this example, polystyrene beads are impregnated with a compound (phosphoramidon) to simulate the situation that would arise when a compound is made on a bead and then released prior to contacting the assay medium. The assay medium comprises a Sephacryl™ gel containing an enzyme, endothelin converting enzyme, and a fluorogenic FRET substrate, following by fluorescence imaging of the gel.
Ca 300 beads as used in Example 1 were suspended in a solution of phosphoramidon (10mM) in DMSO, allowed to swell and washed briefly in DMSO.
The FRET substrate, was derived from that of human big endothelin-1, 16-37, with Glu-26 changed to Cys: [formula] Fluorescein had been attached to Cys-26 and tetramethylrhodamine attached to the N-terminus, such that cleavage of the substrate removes the quenching effect of the tetramethylrhodamine resulting in an increase of fluorescein fluorescence.
The assay phase was assembled as follows. Sephacryl™ S-500 gel was suspended in 0.2M Tris/HCl pH 7.2 containing 0.5% BSA and then washed with buffer alone. To this gel suspension (24.5ml) was added the FRET substrate (3ml, 4micromolar final) and ECE (2.6 microlitres). After gentle mixing, the gel was poured into the polystyrene lid of a microtitre plate, allowed to settle and excess liquid gently removed with a tissue. […] The gel was then imaged on a fluorescence imager (FluorImager, Molecular Dynamics).

endothelin receptor = assay: IC-50 determination by conventional filtration techniques (Holland et al.); type: binding
[2] = test system: porcine endothelin receptor; assay: Zone screening scintillation proximity assay in agarose gel, [125-I]Endothelin binding to receptor-coated SPA microspheres; details: one bead per well
Protocol: Agarose (Sigma) was suspended in distilled water and heated to boiling point in a microwave to melt, then cooled to 50 deg. C. Microspheres coated with the porcine endothelin receptor (1 vial, SPA, Amersham) were re-constituted in assay buffer (50 mM Tris.HCl, 1 mM EDTA, 0.1% BSA, 10 mM MgC12, pH 6.4 (25 ml). This suspension (10 ml) was then added to the cooled (50 deg. C) agarose (10 ml), vortexed mixed and 0.1 ml portions immediately added to wells of a white microtitre plate (Picoplate-96, Packard).
Test compounds were prepared as follows. Polystyrene beads (as used in example 1) were suspended in DMSO solutions of endothelin-1 (Cambridge Research Biochemicals) or various test compounds (T1 - T4) at various concentrations (see Table 1) for about 2 hours. After a spin (1 min.) on a micro-fuge, the beads were washed briefly in ethanol. Single beads were then transfered with forceps into the centre of the wells containing the SPA/agarose mix, one bead per well.
[125-I]Endothelin (Amersham) was diluted into the assay buffer to give a 180 pM solution. 6 ml of this was added to 6 ml of 1% agarose (at 50 deg. C) and vortexed mixed. 0.05 ml aliquots were then immediately added to each well. The plate was then sealed (Topseal-S, Packard) and counted at intervals (Top Count, Packard) for 2 minutes per well. By reference to a total control (no compound present) and non-specific binding control (40 micromolar endothelin-1, measured after 8 hours incubation), the per cent inhibition caused by each compound as it diffused away from the bead was calculated.
This inhibition is related to the potency of the compound. […]

Row | zones of enzyme inhibition in gel (fluorescence image) [1] | IC50 (endothelin receptor) | inhibition (%) ([2]; readings at 2 hours, bead soaked in 1.25 micromolar DMSO solution) | inhibition (%) ([2]; readings at 2 hours, bead soaked in 2.5 micromolar DMSO solution) | inhibition (%) ([2]; readings at 2 hours, bead soaked in 5 micromolar DMSO solution) | inhibition (%) ([2]; readings at 2 hours, bead soaked in 10 micromolar DMSO solution) | inhibition (%) ([2]; readings at 2 hours, bead soaked in 20 micromolar DMSO solution) | inhibition (%) ([2]; readings at 2 hours, bead soaked in 40 micromolar DMSO solution) | inhibition (%) ([2]; readings at 8 hours, bead soaked in 1.25 micromolar DMSO solution) | inhibition (%) ([2]; readings at 8 hours, bead soaked in 2.5 micromolar DMSO solution) | inhibition (%) ([2]; readings at 8 hours, bead soaked in 5 micromolar DMSO solution) | inhibition (%) ([2]; readings at 8 hours, bead soaked in 10 micromolar DMSO solution) | inhibition (%) ([2]; readings at 8 hours, bead soaked in 20 micromolar DMSO solution) | inhibition (%) ([2]; readings at 8 hours, bead soaked in 40 micromolar DMSO solution) | Molecule
1 | zones of reduced fluorescence |  |  |  |  |  |  |  |  |  |  |  |  |  | CC(C)C[C@H](NP(=O)(O)O[C@@H]1O[C@@H](C)[C@H](O)[C@@H](O)[C@H]1O)C(=O)N[C@@H](Cc1c[nH]c2ccccc12)C(=O)O [phosphoramidon]
2 |  | 0.18 nM | -0.6% | 12.3% | 19.5% | 36.3% | 85.2% | (100) % | 6.5% | 14.0% | 18.2% | 40.0% | 47.5% | (100) % | endothelin-1
